Calls of active or inactive are those of the source.

Results on three compounds are retold here after ChEMBL document CHEMBL5036307, “Antimalarial Quinacrine and Chloroquine Lose Their Activity by Decreasing Cationic Amphiphilic Structure with a Slight Decrease in pH” (J Med Chem, 2021).

Experiment [1] has as its system Saccharomyces cerevisiae. Nature of the experiment: Antimicrobial activity against Saccharomyces cerevisiae BY4741 assessed as inhibition of microbial growth at pH 8 in presence of glucose measured after 48 hrs by visual analysis. In kind it is functional.
Experiment [2] relates to Saccharomyces cerevisiae. Kind of experiment: Antimicrobial activity against Saccharomyces cerevisiae BY4741 assessed as inhibition of microbial growth at pH 7 in presence of glucose measured after 48 hrs by visual analysis. In kind it is functional.
For experiment [3], the system named is Saccharomyces cerevisiae. Kind of experiment: Ratio of antimicrobial activity against Saccharomyces cerevisiae BY4741 at pH 7 to antimicrobial activity against Saccharomyces cerevisiae BY4741 at pH 8. The experiment is classed as functional.
Experiment [4] has as its system Saccharomyces cerevisiae. Kind of experiment: Antimicrobial activity against Saccharomyces cerevisiae BY4741 assessed as inhibition of microbial growth at 60 mM at pH 6 in presence of glucose measured after 48 hrs by visual analysis. The experiment is classed as functional, organism-based.
Experiment [5] has as its system Saccharomyces cerevisiae. Kind of experiment: Ratio of antimicrobial activity against Saccharomyces cerevisiae BY4741 at pH 6 to antimicrobial activity against Saccharomyces cerevisiae BY4741 at pH 8. In kind it is functional.
Experiment [6] deals with Saccharomyces cerevisiae. Kind of experiment: Antimicrobial activity against Saccharomyces cerevisiae BY4741 assessed as inhibition of microbial growth at pH 6 in presence of glucose measured after 48 hrs by visual analysis. In kind it is functional.
In experiment [7] the test system is Saccharomyces cerevisiae. Nature of the experiment: Inhibition HXT2 in Saccharomyces cerevisiae using 2DG as substrate assessed as reduction in 2DG uptake by measuring decrease in Vmax at 75 uM at pH 7.5 by Michaelis-Menten analysis (Rvb= 211 +/- 9 nmol/min).
In experiment [8] the test system is Saccharomyces cerevisiae. Kind of experiment: Inhibition HXT2 in Saccharomyces cerevisiae using 2DG as substrate assessed as reduction in 2DG uptake by measuring decrease in Vmax at 125 uM at pH 7.5 by Michaelis-Menten analysis (Rvb= 211 +/- 9 nmol/min).
Experiment [9] is described as follows: Inhibition HXT2 in Saccharomyces cerevisiae using 2DG as substrate assessed as inhibition of 2DG uptake at pH 6 preincubated for 10 min followed by substrate addition and measured after 10 min by glucose uptake-Glo assay.
Experiment [10] relates to Saccharomyces cerevisiae. Kind of experiment: Inhibition HXT2 in Saccharomyces cerevisiae using 2DG as substrate assessed as reduction in 2DG uptake by measuring Km at 75 uM at pH 7.5 by Michaelis-Menten analysis (Rvb= 0.76 +/- 0.03 mM).
A short description of experiment [11]: Inhibition HXT2 in Saccharomyces cerevisiae using 2DG as substrate assessed as reduction in 2DG uptake at pH 7.5 preincubated for 10 min followed by substrate addition and measured after 10 min by glucose uptake-Glo assay.
Experiment [12] has as its system Saccharomyces cerevisiae. Kind of experiment: Inhibition HXT2 in Saccharomyces cerevisiae using 2DG as substrate assessed as reduction in 2DG uptake by measuring Km at 125 uM at pH 7.5 by Michaelis-Menten analysis (Rvb= 0.76 +/- 0.03 mM).
The subject of experiment [13] is Cell membrane. Kind of experiment: Induction of membrane disruption in Saccharomyces cerevisiae BY4741 at 50 mM incubated for 2 hrs by FM4-64 staining based analysis. In kind it is subcellular.
In experiment [14] the test system is Saccharomyces cerevisiae BY4741. Kind of experiment: Inhibition of actin polarization in Saccharomyces cerevisiae BY4741 at pH 6 incubated for 30 mins in presence of 2% glucose by rhodamine phalloidin staining based confocal microscopic analysis.
In experiment [15] the test system is Saccharomyces cerevisiae. Nature of the experiment: Antimicrobial activity against saccharomyces cerevisiae BY4741 assessed as inhibition of translation initiation by measuring polysme/monosome ratio at 1.5 mM at pH 7.5 incubated for 30 mins in presence of 8% glucose by polysome analysis (Rvb= 1.94). The experiment is classed as functional. To be noted: 0.5 h.

Experiment [16] deals with Saccharomyces cerevisiae. Nature of the experiment: Inhibition HXT2 in Saccharomyces cerevisiae using 2DG as substrate assessed as reduction in 2DG uptake by measuring decrease in Vmax at 0.2 mM at pH 7.5 by Michaelis-Menten analysis (Rvb= 208 +/- 7 nmol/min).
Experiment [17] deals with Saccharomyces cerevisiae. Nature of the experiment: Inhibition of endocytosis in Saccharomyces cerevisiae BY4741 from plasma to vacuoles assessed as formation of discrete granules at 25 mM incubated for 2 hrs by FM4-64 staining based analysis. The experiment is classed as functional, organism-based.
The test system of experiment [18] is Saccharomyces cerevisiae. Nature of the experiment: Inhibition HXT2 in Saccharomyces cerevisiae using 2DG as substrate assessed as reduction in 2DG uptake by measuring Km at 0.6 mM at pH 7.5 by Michaelis-Menten analysis (Rvb= 0.76 +/- 0.08 mM).
Experiment [19] is described as follows: Inhibition of actin polarization in Saccharomyces cerevisiae BY4741 at pH 7.5 incubated for 30 mins in presence of 8% glucose by rhodamine phalloidin staining based confocal microscopic analysis.
Experiment [20] deals with Saccharomyces cerevisiae. Kind of experiment: Antimicrobial activity against Saccharomyces cerevisiae BY4741 assessed as inhibition of microbial growth at 50 mM at pH 5 in presence of glucose measured after 48 hrs by visual analysis. The experiment is classed as functional, organism-based.
The subject of experiment [21] is Saccharomyces cerevisiae. Kind of experiment: Inhibition HXT2 in Saccharomyces cerevisiae using 2DG as substrate assessed as reduction in 2DG uptake by measuring Km at 0.2 mM at pH 7.5 by Michaelis-Menten analysis (Rvb=0.76 +/- 0.08 mM).
For experiment [22], the system named is Saccharomyces cerevisiae. Kind of experiment: Antimicrobial activity against saccharomyces cerevisiae BY4741 assessed as inhibition of translation initiation by measuring polysme/monosome ratio at 1.5 mM at pH 7.5 incubated for 30 mins in presence of 2% glucose by polysome analysis (Rvb= 1.74). In kind it is functional. To be noted: 0.5 h.
A short description of experiment [23]: Inhibition of actin polarization in Saccharomyces cerevisiae BY4741 at pH 7.5 incubated for 30 mins in presence of 2% glucose by rhodamine phalloidin staining based confocal microscopic analysis.
Experiment [24] relates to Cell membrane. Kind of experiment: Induction of membrane disruption in Saccharomyces cerevisiae BY4741 assessed as cell lysis by measuring increase in extracellular ATP level at pH 7.5 in presence of 2% glucose incubated for 30 mins.
For experiment [25], the system named is Cell membrane. Nature of the experiment: Induction of membrane disruption in Saccharomyces cerevisiae BY4741 assessed as cell lysis by measuring increase in extracellular ATP level at pH 7.5 in presence of 8% glucose incubated for 30 mins.
Experiment [26] deals with Saccharomyces cerevisiae. Kind of experiment: Inhibition HXT2 in Saccharomyces cerevisiae using 2DG as substrate assessed as reduction in 2DG uptake by measuring decrease in Vmax at 0.6 mM at pH 7.5 by Michaelis-Menten analysis (Rvb= 208 +/- 7 nmol/min).

As a reminder, the MIC is the smallest concentration in the dilution series that meets the test's criterion for growth inhibition. For the compound `CCN(CC)CCCC(C)Nc1ccnc2cc(Cl)ccc12` (stereo unspecified) [CHLOROQUINE], the minimum inhibitory concentration (MIC) was 520 µM in experiment [1] and 15000 µM in experiment [2]. Also, the Ratio in [3] was determined as 30. In addition, the outcome in [4] was inactive.
The term Vmax denotes the rate approached at saturating substrate. Usually IC50 stands for the point on the concentration scale where inhibition reaches its midpoint. By Km is commonly meant the concentration of substrate that gives half-maximal velocity. `CN(C)CCCN1c2ccccc2Sc2ccc(Cl)cc21` [CHLORPROMAZINE]: the Ratio turned out to be 16 in experiment [5] and 2 in [3]. Moreover, the figures for the MIC in [6], in [1] and in experiment [2] were 250 µM, 15 µM and 31 µM, respectively. Also, the results for the Vmax in experiment [7] and in experiment [8] were 126 nmol/min and 63 nmol/min, respectively. Also, the half-maximal inhibitory concentration (IC50) in [9] was 259 µM; in experiment [11] it was 115 µM. Further, the values for the Michaelis constant (Km) in experiment [10] and in experiment [12] were 630 µM and 710 µM, respectively.
For `CCN(CC)CCCC(C)Nc1c2ccc(Cl)cc2nc2ccc(OC)cc12` (stereo unspecified) [QUINACRINE], in [13], the result was Active. Besides, the Ratio came to 600 in experiment [5], 1.69 in experiment [15], 1.53 in [22] and 30 in experiment [3]. Besides, in [14], the inhibition entry is “inactive”. Further, the minimal inhibitory concentration (MIC) came to 50000 µM in experiment [6], 83 µM in experiment [1] and 2.5 µM in experiment [2]. For the same compound, the figures for the maximum rate (Vmax) in experiment [16] and in [26] were 158 nmol/min and 113 nmol/min, respectively. Also, the inhibition entry in experiment [17] is “Active”. The Km in [18] amounted to 750 µM; in experiment [21], 770 µM. In addition, the IC50 worked out at 1600 µM in [19], 3490 µM in [9], 1000 µM in experiment [23] and 370 µM in experiment [11]. Moreover, the outcome in experiment [20] was inactive. Besides, the Activity is 21.6 mM in experiment [24] and 37 mM in experiment [25].
